Test results published in patent US7678913B2, “Ureas as factor Xa inhibitors” (Portola Pharmaceuticals, Inc., priority 2004, dated 2010).

Target: T1, human plasma protein factor Xa (Homo sapiens, UniProt P00742)
T1 construct: measure proteolytic activity of the enzyme (factor Xa); purchased Haematologic Technologies (Essex Junction, Vt.); host or cells: human plasma
Experiment: Factor Xa IC50 determination (cleavage of chromogenic substrate S-2765)
Assay type: biochemical
Conditions: fXa 1 nM, S-2765 100 μM, Tris buffered saline pH 7.4, room temperature
From the text: This example illustrates methods for evaluating the compounds of the invention, along with results obtained for such assays. The in vitro and in vivo Factor Xa isoform activities of the inventive compounds can be determined by various procedures known in the art, such as a test for their ability to inhibit the activity of the Factor Xa isoform. […] The IC50 value is the concentration (in nM) of the compound required to provide 50% inhibition of Factor Xa isoform.
An in vitro assay for detecting and measuring inhibition activity against Factor Xa is as follows:
• The substrate S-2765 (Z-D-Arg-Gly-Arg-pNA.HCl) was obtained from Diapharma (West Chester, Ohio). Enzyme: • The human plasma protein factor Xa was purchased from Haematologic Technologies (Essex Junction, Vt.). Methods
All assays, which are performed in 96-well microtiter plates, measure proteolytic activity of the enzyme (factor Xa) by following cleavage of paranitroanilide substrate. The assay buffer used for proteolytic assays was Tris buffered saline (20 mM Tris, 150 mM NaCl, 5 mM CaCl2, 0.1% Bovine serum albumin (BSA), 5% Dimethly Sulfoxide (DMSO) pH 7.4). In a 96-well microtiter plate, inhibitor was serially diluted to give a range of concentrations from 0.01 nM to 10 μM (final). Duplicate sets of wells were assayed and control wells without inhibitor were included. Enzyme was added to each well,(fXa concentration=1nM), the plate was shaken for 5 seconds and then incubated for 5 minutes at room temperature. S2765 was added (100 μM final) and the plate was shaken for 5 seconds (final liquid volume in each well was 200 μl). The degree of substrate hydrolysis was measured at 405 nm on a Thermomax plate reader (Molecular Devices, Sunnyvale, Calif.) for 2 minutes. The initial velocities (mOD/min), for each range of inhibitor concentrations, were fitted to a four parameter equation using Softmax data analysis software. The parameter C, derived from the resulting curve-fit, corresponded to the concentration for half maximal inhibition (IC50).

T1 sequence (P00742 235-488 limits assumed): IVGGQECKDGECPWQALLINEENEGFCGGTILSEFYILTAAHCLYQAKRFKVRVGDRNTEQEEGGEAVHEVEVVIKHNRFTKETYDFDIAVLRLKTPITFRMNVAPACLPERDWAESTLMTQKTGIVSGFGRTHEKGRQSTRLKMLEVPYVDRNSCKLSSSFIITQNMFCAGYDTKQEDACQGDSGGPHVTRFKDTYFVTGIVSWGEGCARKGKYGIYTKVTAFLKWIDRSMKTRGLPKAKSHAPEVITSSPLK
T1 sequence (P00742 41-179 partner limits assumed): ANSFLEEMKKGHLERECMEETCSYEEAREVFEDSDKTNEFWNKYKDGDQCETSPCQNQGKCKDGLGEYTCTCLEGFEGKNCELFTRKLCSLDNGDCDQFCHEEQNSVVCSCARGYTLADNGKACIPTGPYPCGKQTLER

IC50 [nM] | Structure (SMILES)
100 to 500 | CN1CCN=C1c1ccc(NC(=O)[C@@H](CC(=O)O)NC(=O)Nc2ccc(Cl)cc2)cc1 [Example 62, (2R) N-[4-(1-methyl-4,5-dihydro-1H-imidazol-2-yl)phenyl]-2-carboxymethyl-2-(4-chlorophenylaminocarbonylamino)-acetamide]
≥ 500 | CN(C)C(=O)CC(NC(=O)Nc1ccc(Cl)cc1)C(=O)Nc1ccc(C2=NCCN2C)cc1 (centres unmarked) [Example 63, N-[4-(1-methyl-4,5-dihydro-1H-imidazol-2-yl)phenyl]-2-dimethylaminocarbonylmethyl-2-(4-chlorophenylaminocarbonylamino)-acetamide]
≥ 500 | CN1CCN=C1c1ccc(NC(=O)C(CC(=O)N2CCCCC2)NC(=O)Nc2ccc(Cl)cc2)cc1 (centres unmarked) [Example 64, N-[4-(1-methyl-4,5-dihydro-1H-imidazol-2-yl)phenyl]-2-(piperidin-1-ylcarbonylmethyl)-2-(4-chlorophenylaminocarbonylamino)-acetamide]
≥ 500 | CN1CCN=C1c1ccc(NC(=O)C(CC(=O)N2CCOCC2)NC(=O)Nc2ccc(Cl)cc2)cc1 (centres unmarked) [Example 65, N-[4-(1-methyl-4,5-dihydro-1H-imidazol-2-yl)phenyl]-2-(morpholin-4-ylcarbonylmethyl)-2-(4-chlorophenylaminocarbonylamino)-acetamide]
≥ 500 | CN1CCN=C1c1ccc(NC(=O)C(CC(=O)N2CCCC2)NC(=O)Nc2ccc(Cl)cc2)cc1 (centres unmarked) [Example 66, N-[4-(1-methyl-4,5-dihydro-1H-imidazol-2-yl)phenyl]-2-(pyrrolidin-1-yl-carbonylmethyl)-2-(4-chlorophenylaminocarbonylamino)-acetamide]
≥ 500 | CN1CCN=C1c1ccc(NC(=O)C(CC(=O)N2CCCCCC2)NC(=O)Nc2ccc(Cl)cc2)cc1 (centres unmarked) [Example 68, N-[4-(1-methyl-4,5-dihydro-1H-imidazol-2-yl)phenyl]-2-(homopiperidin-1-ylcarbonylmethyl)-2-(4-chlorophenylaminocarbonylamino)-acetamide]
≥ 500 | CN1CCN=C1c1ccc(NC(=O)C(CC(=O)NCc2ccccc2)NC(=O)Nc2ccc(Cl)cc2)cc1 (centres unmarked) [Example 69, N-[4-(1-methyl-4,5-dihydro-1H-imidazol-2-yl)phenyl]-2-(benzylamino-carbonylmethyl)-2-(4-chlorophenylaminocarbonylamino)-acetamide]
100 to 500 | CNC(=O)CC(NC(=O)Nc1ccc(Cl)cc1)C(=O)Nc1ccc(C2=NCCN2C)cc1 (centres unmarked) [Example 70, N-[4-(1-methyl-4,5-dihydro-1H-imidazol-2-yl)phenyl]-2-(methylamino-carbonylmethyl)-2-(4-chlorophenylaminocarbonylamino)-acetamide]
≥ 500 | CN1CCN=C1c1ccc(NC(=O)C(CC(N)=O)NC(=O)Nc2ccc(Cl)cc2)cc1 (centres unmarked) [Example 71, N-[4-(1-methyl-4,5-dihydro-1H-imidazol-2-yl)phenyl]-2-(aminocarbonylmethyl)-2-(4-chlorophenylaminocarbonylamino)-acetamide]
100 to 500 | CN1CCN=C1c1ccc(NC(=O)C(CC(=O)Nc2ccccc2)NC(=O)Nc2ccc(Cl)cc2)cc1 (centres unmarked) [Example 73, N-[4-(1-methyl-4,5-dihydro-1H-imidazol-2-yl)phenyl]-2-(phenylamino-carbonylmethyl)-2-(4-chlorophenylaminocarbonylamino)-acetamide]
≤ 100 | CN1CCN=C1c1ccc(NC(=O)C(NC(=O)Nc2ccc(Cl)cc2)c2cccc(Cl)c2)cc1 (centres unmarked) [Example 74, N-[4-(1-methyl-4,5-dihydro-1H-imidazol-2-yl)phenyl]-2-(3-chlorophenyl)-2-(4-chlorophenylaminocarbonylamino)-acetamide]
≤ 100 | CN1CCN=C1c1ccc(NC(=O)C(NC(=O)Nc2ccc(Cl)cc2)c2ccccc2Cl)cc1 (centres unmarked) [Example 75, N-[4-(1-methyl-4,5-dihydro-1H-imidazol-2-yl)phenyl]-2-(2-chlorophenyl)-2-(4-chlorophenylaminocarbonylamino)-acetamide]
≤ 100 | CN1CCN=C1c1ccc(NC(=O)C(NC(=O)Nc2ccc(Cl)cc2)c2ccccc2Br)cc1 (centres unmarked) [Example 77, N-[4-(1-methyl-4,5-dihydro-1H-imidazol-2-yl)phenyl]-2-(2-bromophenyl)-2-(4-chlorophenylaminocarbonylamino)-acetamide]
≤ 100 | Cc1ccccc1C(NC(=O)Nc1ccc(Cl)cc1)C(=O)Nc1ccc(C2=NCCN2C)cc1 (centres unmarked) [Example 84, N-[4-(1-methyl-4,5-dihydro-1H-imidazol-2-yl)phenyl]-2-(2-methylphenyl)-2-(4-chlorophenylaminocarbonylamino)-acetamide]

Continued, molecule first:

Structure (SMILES) | IC50 [nM]
CCOC(=O)C1CCN(C(=O)CC(NC(=O)Nc2ccc(Cl)cc2)C(=O)Nc2ccc(C3=NCCN3C)cc2)CC1 (centres unmarked) [Example 67] | ≥ 500
CN1CCN=C1c1ccc(N2C(=O)CC(NC(=O)Nc3ccc(Cl)cc3)C2=O)cc1 (centres unmarked) [Example 72, N-[4-(1-methyl-4,5-dihydro-1H-imidazol-2-yl)phenyl]-3-(4-chlorophenylaminocarbonylamino)-succinimide] | 100 to 500
CN1CCN=C1c1ccc(NC(=O)C(NC(=O)Nc2ccc(Cl)cc2)c2ccc3c(c2)OCO3)cc1 (centres unmarked) [Example 76, N-[4-(1-methyl-4,5-dihydro-1H-imidazol-2-yl)phenyl]-2-(benzo-1,3-dioxl-5-yl)-2-(4-chlorophenylaminocarbonylamino)-acetamide] | ≤ 100
O=C(Nc1ccc(Cl)cc1)NC(C(=O)Nc1ccc(-c2cc[n+]([O-])cc2)cc1)c1ccccc1Br (centres unmarked) [Example 78, N-[4-(N-oxo-pyridin-4-yl)phenyl]-2-(2-bromophenyl)-2-(4-chlorophenylaminocarbonylamino)-acetamide] | 100 to 500
O=C(Nc1ccc(Cl)cc1)NC(C(=O)Nc1ccc(-c2cccc[n+]2[O-])cc1)c1ccccc1Br (centres unmarked) [Example 79, N-[4-(N-oxo-pyridin-2-yl)phenyl]-2-(2-bromophenyl)-2-(4-chlorophenylaminocarbonylamino)-acetamide] | ≤ 100
CN(C)C(=N)c1ccc(NC(=O)C(NC(=O)Nc2ccc(Cl)cc2)c2ccccc2Br)cc1 (centres unmarked) [Example 80, N-[4-(dimethylaminoimino)phenyl]-2-(2-bromophenyl)-2-(4-chlorophenylaminocarbonylamino)-acetamide] | ≤ 100
N=C(c1ccc(NC(=O)C(NC(=O)Nc2ccc(Cl)cc2)c2ccccc2Br)cc1)N1CCCC1 (centres unmarked) [Example 81] | ≤ 100
CC(C)N1CCC(NC(=O)C(NC(=O)Nc2ccc(Cl)cc2)c2ccccc2Br)CC1 (centres unmarked) [Example 82, N-(1-isopropylpiperidin-4-yl)-2-(2-bromophenyl)-2-(4-chlorophenylamino-carbonylamino)-acetamide] | ≥ 500
CN1CCC(N2CCN(C(=O)C(NC(=O)Nc3ccc(Cl)cc3)c3ccccc3Br)CC2)CC1 (centres unmarked) [Example 83] | ≤ 100
Cc1ccccc1C(NC(=O)Nc1ccc(Cl)cc1)C(=O)Nc1ccc(-n2ccnc2CN(C)C)cc1F (centres unmarked) [Example 85, N-[4-(2-dimethylaminomethyl-imidazol-1-yl)-2-fluorophenyl]-2-(2-methylphenyl)-2-(4-chlorophenylaminocarbonylamino)-acetamide] | ≤ 100
Cc1ccccc1C(NC(=O)Nc1ccc(Cl)cc1)C(=O)Nc1ccc(C(=N)N(C)C)cc1 (centres unmarked) [Example 86] | ≤ 100
Cc1ccccc1C(NC(=O)Nc1ccc(Cl)cc1)C(=O)Nc1ccc(C(=N)N2CCCC2)cc1 (centres unmarked) [Example 87] | ≤ 100
Cc1ccccc1C(NC(=O)Nc1ccc(Cl)cc1)C(=O)Nc1ccc(-c2cccc[n+]2[O-])cc1 (centres unmarked) [Example 88, N-[4-(N-oxo-pyridin-2-yl)phenyl]-2-(2-methylphenyl)-2-(4-chlorophenylaminocarbonylamino)-acetamide] | ≤ 100
Cc1ccccc1C(NC(=O)Nc1ccc(Cl)cc1)C(=O)Nc1ccc(-c2ccccc2CN(C)C)cc1 (centres unmarked) [Example 89, N-[4-(2-dimethylaminomethyl-phenyl)phenyl]-2-(2-methylphenyl)-2-(4-chlorophenylaminocarbonylamino)-acetamide] | ≤ 100
Cc1ccccc1C(NC(=O)Nc1ccc(Cl)cc1)C(=O)NC1CCN(C(C)C)CC1 (centres unmarked) [Example 90, N-(1-isopropylpiperidin-4-yl)-2-(2-methylphenyl)-2-(4-chlorophenylamino-carbonylamino)-acetamide] | ≥ 500
Cc1ccccc1C(NC(=O)Nc1ccc(Cl)cc1)C(=O)N1CCN(C2CCN(C)CC2)CC1 (centres unmarked) [Example 91] | ≤ 100
Cc1ccccc1C(NC(=O)Nc1ccc(Cl)cc1)C(=O)Nc1ccc(N2CCCN(C)CC2)cc1 (centres unmarked) [Example 92, N-[4-(4-methyl-homopiperazinyl)phenyl]-2-(2-methylphenyl)-2-(4-chlorophenylaminocarbonylamino)-acetamide] | ≤ 100
Cc1ccccc1C(NC(=O)Nc1ccc(Cl)cc1)C(=O)NCC1CCN(c2ccncc2)CC1 (centres unmarked) [Example 93, N-[1-(pyridin-4-yl)piperidin-4-yl]methyl-2-(2-methylphenyl)-2-(4-chlorophenylaminocarbonylamino)-acetamide] | ≤ 100
